Reference: patent publication US20220153751A1, “BIFUNCTIONAL COMPOUNDS” (BioTheryX, Inc., priority 2018, published 2022)

Tests used:
Assay type in all cases: cell-based
CDK9 = molecular target: T1, CDK9 (Homo sapiens, UniProt P50750); assay: CDK9 degradation assay (Western blot, MV-4-11 cells); conditions: 6-8 h; for Dmax at 0.1 µM: MV4-11, 0.1 μM; for Dmax at 1 µM: MV4-11, 1 μM
T1 construct: Whole cell extracts were prepared using RIPA buffer; endogenous in cells; host or cells: MV-4-11
In short: (§1)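 6-8 h cpd vs DMSO, ~10^6 cells/mL; RIPA lysis on ice 15 min; 4-12% SDS-PAGE, nitrocellulose, IRDye secondaries, Odyssey scan. % degradation categories: A <25, B 25-<50, C 50-<75, D ≥75%.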

TNF-α = TNF-α inhibition assay, LPS-induced PBMCs / CD14+ monocytes (Meso Scale); conditions: 1 h pretreatment, 100 ng/mL LPS 18-24 h
In short: (§2)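 Thawed human PBMCs or CD14+ mobilized peripheral blood monocytes, 200,000 cells/well in RPMI-1640/10% FBS, pretreated with compound or DMSO 1 h, then stimulated with 100 ng/mL LPS for 18-24 h. Supernatant cytokine measured by Meso Scale; % inhibition binned A–D (<50%, 50–70%, 70–90%, ≥90%), fold-change binned A–D (≤0.1, ≤0.5, ≤1, >1).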

CK1α = molecular target: T2, CK1α (Homo sapiens, UniProt P48729+Q96SW2); assay: CK1α degradation assay (Western blot, MV-4-11 cells); conditions: MV4-11, 6-8 h
T2 construct: Whole cell extracts were prepared using RIPA buffer; endogenous in cells; host or cells: MV-4-11
T2 sequence (P48729 whole entry): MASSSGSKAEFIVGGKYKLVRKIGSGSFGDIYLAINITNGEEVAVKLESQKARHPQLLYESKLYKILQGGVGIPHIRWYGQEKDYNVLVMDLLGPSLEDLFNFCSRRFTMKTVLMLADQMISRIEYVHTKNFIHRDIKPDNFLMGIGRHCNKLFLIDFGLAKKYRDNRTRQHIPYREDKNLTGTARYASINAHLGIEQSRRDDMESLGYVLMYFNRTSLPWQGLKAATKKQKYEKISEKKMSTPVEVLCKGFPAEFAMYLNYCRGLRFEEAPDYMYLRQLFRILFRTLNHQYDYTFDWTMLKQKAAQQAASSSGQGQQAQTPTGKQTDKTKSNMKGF
T2 sequence (Q96SW2 whole entry): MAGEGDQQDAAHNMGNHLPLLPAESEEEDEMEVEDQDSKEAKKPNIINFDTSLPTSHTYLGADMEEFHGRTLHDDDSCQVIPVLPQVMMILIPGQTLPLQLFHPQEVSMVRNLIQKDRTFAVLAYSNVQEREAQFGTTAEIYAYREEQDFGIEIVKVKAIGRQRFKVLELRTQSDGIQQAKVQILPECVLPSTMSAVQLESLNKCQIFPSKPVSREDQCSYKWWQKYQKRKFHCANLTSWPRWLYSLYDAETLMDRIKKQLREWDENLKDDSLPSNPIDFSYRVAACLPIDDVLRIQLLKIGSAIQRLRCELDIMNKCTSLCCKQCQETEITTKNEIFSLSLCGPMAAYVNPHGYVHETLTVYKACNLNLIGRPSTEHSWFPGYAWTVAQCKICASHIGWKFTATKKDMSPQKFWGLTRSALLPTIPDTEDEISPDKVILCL
T2 sequence (Q16531 whole entry partner): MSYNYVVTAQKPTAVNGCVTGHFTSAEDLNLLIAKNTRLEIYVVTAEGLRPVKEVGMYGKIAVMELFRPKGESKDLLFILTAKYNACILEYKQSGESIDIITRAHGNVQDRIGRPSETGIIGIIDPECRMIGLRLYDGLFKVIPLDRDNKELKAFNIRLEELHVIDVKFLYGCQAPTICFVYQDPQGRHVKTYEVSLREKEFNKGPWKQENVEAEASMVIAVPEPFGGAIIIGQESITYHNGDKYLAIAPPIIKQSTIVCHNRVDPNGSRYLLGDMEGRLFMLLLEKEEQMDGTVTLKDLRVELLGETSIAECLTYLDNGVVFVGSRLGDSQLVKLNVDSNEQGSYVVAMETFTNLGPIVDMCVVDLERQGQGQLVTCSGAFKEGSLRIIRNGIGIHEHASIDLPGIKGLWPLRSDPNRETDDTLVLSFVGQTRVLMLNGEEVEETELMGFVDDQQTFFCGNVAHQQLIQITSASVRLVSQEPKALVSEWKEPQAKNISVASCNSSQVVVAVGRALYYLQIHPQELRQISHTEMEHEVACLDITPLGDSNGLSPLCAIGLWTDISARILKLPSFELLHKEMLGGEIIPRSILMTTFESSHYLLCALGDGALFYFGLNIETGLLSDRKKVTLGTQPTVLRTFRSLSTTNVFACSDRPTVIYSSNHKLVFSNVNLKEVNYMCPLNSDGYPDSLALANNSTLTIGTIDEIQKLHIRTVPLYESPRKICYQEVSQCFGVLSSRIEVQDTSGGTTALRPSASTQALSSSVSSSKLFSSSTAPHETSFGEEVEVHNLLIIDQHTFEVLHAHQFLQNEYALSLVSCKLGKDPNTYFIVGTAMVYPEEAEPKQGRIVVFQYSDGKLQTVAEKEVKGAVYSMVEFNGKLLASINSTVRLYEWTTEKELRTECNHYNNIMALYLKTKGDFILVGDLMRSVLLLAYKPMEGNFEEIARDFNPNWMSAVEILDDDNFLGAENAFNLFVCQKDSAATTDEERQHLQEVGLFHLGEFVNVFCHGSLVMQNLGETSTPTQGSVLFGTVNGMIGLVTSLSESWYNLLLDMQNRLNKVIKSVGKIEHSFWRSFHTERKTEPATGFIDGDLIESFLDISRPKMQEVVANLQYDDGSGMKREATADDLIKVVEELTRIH
In short: as §1

IL-2 = IL-2 fold-change assay, anti-CD3 stimulated PBMCs (Mesoscale); conditions: PBMC, PBMCs on anti-human CD3, 24 h, fold difference from the DMSO control
Protocol: For the IL-2 analysis, 96 well plates were precoated with 1 μg/mL anti-human CD3 antibody (OK3, eBioscience Inc., San Diego, Calif.). After washing with PBS, the indicated compound was added (50 μL/well) followed by PBMCs diluted at 3-4 million cells/mL (150 μL/well). Plates were incubated for 24 h and the supernatants collected for Mesoscale IL-2 analysis. IL-2 activity is measured as fold difference from the DMSO control.
In Table 6, the % inhibition values are reported as “A”, “B”, “C”, or “D”. “A” represents a % inhibition value of less than 50% (value <50%). “B” represents a % inhibition value of equal to or more than 50% and less than 70% (50%≤value<70%). “C” represents a % inhibition value of equal to or more than 70% and less than 90% (70%≤value<90%). “D” represents a % inhibition value of equal or more than 90% (value ≥90%). In Table 7, the fold-change values are reported as “A”, “B”, “C”, or “D”. “A” represents a fold-change value of equal to or less than 0.1 (value ≤0.1). “B” represents a fold-change value of more than 0.1 and equal to or less than 0.5 (0.1<value≤0.5). “C” represents a fold-change value of more than 0.5 and equal to or less than 1 (0.5<value≤1). “D” represents a fold-change value of more than 1 (value >1).

IKAROS = molecular target: T3, IKAROS (Homo sapiens, UniProt Q13422+Q96SW2); assay: IKAROS degradation assay (Western blot, MV-4-11 cells); conditions: MV4-11, 6-8 h
T3 construct: endogenous in cells; host or cells: MV-4-11
T3 sequence (Q13422 whole entry): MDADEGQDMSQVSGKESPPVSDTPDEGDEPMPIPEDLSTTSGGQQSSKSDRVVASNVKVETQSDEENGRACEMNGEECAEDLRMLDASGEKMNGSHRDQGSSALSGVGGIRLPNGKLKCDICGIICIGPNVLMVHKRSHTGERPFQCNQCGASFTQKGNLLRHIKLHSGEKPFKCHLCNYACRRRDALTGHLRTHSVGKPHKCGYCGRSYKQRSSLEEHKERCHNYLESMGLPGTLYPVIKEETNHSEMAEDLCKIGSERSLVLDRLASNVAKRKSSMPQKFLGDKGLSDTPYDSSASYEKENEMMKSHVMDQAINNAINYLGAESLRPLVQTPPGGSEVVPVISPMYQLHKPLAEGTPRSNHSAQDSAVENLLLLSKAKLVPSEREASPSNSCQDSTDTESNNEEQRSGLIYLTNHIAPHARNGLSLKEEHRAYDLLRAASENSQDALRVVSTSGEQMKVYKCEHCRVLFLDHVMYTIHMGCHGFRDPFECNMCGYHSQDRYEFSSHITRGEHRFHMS
T3 sequence (Q96SW2 whole entry): as the sequence (Q96SW2 whole entry) above
T3 sequence (Q16531 whole entry partner): as the sequence (Q16531 whole entry partner) above
In short: as §1

CDK16 = molecular target: T4, CDK16 (Homo sapiens, UniProt Q00536); assay: CDK16 degradation assay (Western blot, MV-4-11 cells); conditions: 6-8 h; for Dmax at 0.1 µM: MV4-11, 0.1 μM; for Dmax at 1 µM: MV4-11, 1 μM
T4 construct: Whole cell extracts were prepared using RIPA buffer; endogenous in cells; host or cells: MV-4-11
T4 sequence (Q00536 whole entry): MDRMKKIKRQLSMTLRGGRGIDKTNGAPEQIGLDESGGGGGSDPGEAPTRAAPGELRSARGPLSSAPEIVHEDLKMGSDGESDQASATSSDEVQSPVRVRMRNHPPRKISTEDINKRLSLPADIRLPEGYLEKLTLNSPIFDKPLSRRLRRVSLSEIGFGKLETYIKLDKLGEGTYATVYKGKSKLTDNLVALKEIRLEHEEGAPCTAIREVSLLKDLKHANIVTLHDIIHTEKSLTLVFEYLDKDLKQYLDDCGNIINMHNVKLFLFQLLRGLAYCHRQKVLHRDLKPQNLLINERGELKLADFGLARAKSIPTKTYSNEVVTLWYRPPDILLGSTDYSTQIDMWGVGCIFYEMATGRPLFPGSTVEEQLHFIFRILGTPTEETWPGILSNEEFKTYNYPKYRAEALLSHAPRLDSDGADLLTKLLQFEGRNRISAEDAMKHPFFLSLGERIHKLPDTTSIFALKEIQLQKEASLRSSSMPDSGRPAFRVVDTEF
In short: as §1

MOLM-13 cells = assay: MOLM-13 cell viability assay (CellTiter-Glo); conditions: Homo sapiens, MOLM-13, 72 h, 3 days, read-out: MOLM-13 Cell Viability % DMSO at 1 μM
In short: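 MOLM-13 cells at 2500 cells/well were exposed to compound for 3 days at 37 °C. Viability was read by CellTiter-Glo luminescence and expressed as % of DMSO control, binned A (<50%), B (50–<70%), C (70–<90%) or D (≥90%).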

IL-1β = IL-1β inhibition assay, LPS-induced PBMCs / CD14+ monocytes (Meso Scale); conditions: 1 h pretreatment, 100 ng/mL LPS 18-24 h
In short: as §2

GSPT1 = molecular target: T5, GSPT1 (Homo sapiens, UniProt P15170+Q96SW2); assay: GSPT1 degradation assay (Western blot, MV-4-11 cells); conditions: MV4-11, 6-8 h
T5 construct: Whole cell extracts were prepared using RIPA buffer; endogenous in cells; host or cells: MV-4-11
T5 sequence (P15170 whole entry): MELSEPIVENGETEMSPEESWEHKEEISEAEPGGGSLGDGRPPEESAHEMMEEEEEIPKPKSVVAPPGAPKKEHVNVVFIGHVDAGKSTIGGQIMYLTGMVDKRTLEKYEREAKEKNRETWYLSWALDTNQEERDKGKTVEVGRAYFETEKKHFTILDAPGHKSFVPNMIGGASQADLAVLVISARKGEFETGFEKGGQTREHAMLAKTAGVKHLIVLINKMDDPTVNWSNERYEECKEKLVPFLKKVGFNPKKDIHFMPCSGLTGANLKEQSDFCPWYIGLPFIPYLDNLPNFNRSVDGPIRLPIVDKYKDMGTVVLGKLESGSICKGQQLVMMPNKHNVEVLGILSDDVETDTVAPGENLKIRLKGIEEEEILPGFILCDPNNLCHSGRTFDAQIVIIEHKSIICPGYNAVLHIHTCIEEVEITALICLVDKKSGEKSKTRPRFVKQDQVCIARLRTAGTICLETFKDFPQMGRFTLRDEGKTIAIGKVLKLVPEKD
T5 sequence (Q96SW2 whole entry): as the sequence (Q96SW2 whole entry) above
T5 sequence (Q16531 whole entry partner): as the sequence (Q16531 whole entry partner) above
In short: as §1

IL-6 = IL-6 inhibition assay, LPS-induced PBMCs / CD14+ monocytes (Meso Scale); conditions: 1 h pretreatment, 100 ng/mL LPS 18-24 h
In short: as §2

T1 sequence (P50750 whole entry): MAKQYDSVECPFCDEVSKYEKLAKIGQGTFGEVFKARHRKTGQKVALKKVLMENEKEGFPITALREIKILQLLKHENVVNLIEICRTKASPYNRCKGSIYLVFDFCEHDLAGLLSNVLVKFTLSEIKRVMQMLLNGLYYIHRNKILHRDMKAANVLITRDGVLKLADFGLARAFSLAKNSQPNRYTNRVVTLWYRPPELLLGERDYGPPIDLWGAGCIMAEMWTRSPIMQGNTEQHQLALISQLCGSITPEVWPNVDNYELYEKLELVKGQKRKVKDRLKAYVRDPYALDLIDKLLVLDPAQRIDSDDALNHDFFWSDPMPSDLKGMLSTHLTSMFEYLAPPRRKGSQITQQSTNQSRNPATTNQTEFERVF

SMILES | Dmax at 0.1 µM (CDK9) | Dmax at 1 µM (CDK9) | inhibition at 1 µM (TNF-α) | Dmax at 1 µM (CK1α) | fold induction at 1 µM (IL-2) | Dmax at 1 µM (IKAROS) | Dmax at 0.1 µM (CDK16) | Dmax at 1 µM (CDK16) | viability at 1 µM (MOLM-13 cells) | inhibition at 1 µM (IL-1β) | Dmax at 1 µM (GSPT1) | inhibition at 1 µM (IL-6)
CC(C)(C)c1cnc(CSc2cnc(NC(=O)C3CCN(CC(=O)NCCOCCOCCNCC(=O)NCc4cc5c(s4)C(=O)N(C4CCC(=O)NC4=O)C5)CC3)s2)o1 (stereo not drawn) [Compound 34, N-(5-(((5-(tert-butyl)oxazol-2-yl)methyl)thio)thiazol-2-yl)-1-(1-(5-(2,6-dioxopiperidin-3-yl)-6-oxo-5,6-dihydro-4H-thieno[2,3-c]pyrrol-2-yl)-3,15-dioxo-8,11-dioxa-2,5,14-triazahexadecan-16-yl)piperidine-4-carboxamide] | < 25% | ≥ 75% | 70 to 90% | 25 to 50% | ≤ 0.1 | 50 to 75% | 25 to 50% | < 25% | > 90% | 70 to 90% | 50 to 75% | 70 to 90%
CC(C)(C)c1cnc(CSc2cnc(NC(=O)C3CCN(CC(=O)NCCOCCOCCOCCNCC(=O)NCc4scc5c4CN(C4CCC(=O)NC4=O)C5=O)CC3)s2)o1 (stereo not drawn) [Compound 41, N-(5-(((5-(tert-butyl)oxazol-2-yl)methyl)thio)thiazol-2-yl)-1-(1-(5-(2,6-dioxopiperidin-3-yl)-4-oxo-5,6-dihydro-4H-thieno[3,4-c]pyrrol-1-yl)-3,18-dioxo-8,11,14-trioxa-2,5,17-triazanonadecan-19-yl)piperidine-4-carboxamide] | 50 to 75% | ≥ 75% | 70 to 90% | 50 to 75% | 0.1 to 0.5 | 50 to 75% | < 25% | < 25% | 70 to 90% | > 90% | ≥ 75% | > 90%
Cn1ncc(-c2nc(N[C@H]3CC[C@H](NCC(=O)NCCCCNCC(=O)NCc4scc5c4C(=O)N(C4CCC(=O)NC4=O)C5=O)CC3)ncc2Cl)c1CC1CC1 (stereo partly drawn) [Compound 51, 2-(((1r,4r)-4-((5-chloro-4-(5-(cyclopropylmethyl)-1-methyl-1H-pyrazol-4-yl)pyrimidin-2-yl)amino)cyclohexyl)amino)-N-(4-((2-(((5-(2,6-dioxopiperidin-3-yl)-4,6-dioxo-5,6-dihydro-4H-thieno[3,4-c]pyrrol-1-yl)methyl)amino)-2-oxoethyl)amino)butyl)acetamide] | – | – | > 90% | 25 to 50% | ≤ 0.1 | 50 to 75% | – | – | > 90% | > 90% | 25 to 50% | > 90%
Cn1ncc(-c2nc(N[C@H]3CC[C@H](NCC(=O)NCCOCCOCCOCCNc4cccc5c4CN(C4CCC(=O)NC4=O)C5=O)CC3)ncc2Cl)c1CC1CC1 (stereo partly drawn) [Compound 55, 2-(((1r,4r)-4-((5-chloro-4-(5-(cyclopropylmethyl)-1-methyl-1H-pyrazol-4-yl)pyrimidin-2-yl)amino)cyclohexyl)amino)-N-(2-(2-(2-(2-((2-(2,6-dioxopiperidin-3-yl)-1-oxoisoindolin-4-yl)amino)ethoxy)ethoxy)ethoxy)ethyl)acetamide] | – | – | > 90% | 25 to 50% | ≤ 0.1 | ≥ 75% | – | – | > 90% | > 90% | 50 to 75% | > 90%
Cn1ncc(-c2nc(N[C@H]3CC[C@H](NCCOCCOCCNCc4ccc(OCc5scc6c5CN([C@H]5CCC(=O)NC5=O)C6=O)cc4)CC3)ncc2Cl)c1CC1CC1 [Compound 67, (S)-3-(1-((4-(((2-(2-(2-(((1r,4r)-4-((5-chloro-4-(5-(cyclopropylmethyl)-1-methyl-1H-pyrazol-4-yl)pyrimidin-2-yl)amino)cyclohexyl)amino)ethoxy)ethoxy)ethyl)amino)methyl)phenoxy)methyl)-4-oxo-4H-thieno[3,4-c]pyrrol-5(6H)-yl)piperidine-2,6-dione] | – | – | > 90% | 25 to 50% | 0.5 to 1 | 25 to 50% | – | – | > 90% | > 90% | 50 to 75% | > 90%
